# Entries after “also recorded” stand apart in the source; their conditions may differ.
# Legend:
# [1] = test system: long-chain DNA (pUC-II′; SEQ ID NO:7); assay: DNA alkylation of 5′-Texas Red-labeled long-chain DNA, analysed by polyacrylamide gel electrophoresis; type: biochemical; details: 23° C., 8 hours, FIG. 1
# Protocol: A 5′-Texas Red-labeled DNA fragment (450 bp) (pUC-II′, SEQ ID NO:7) was prepared by a PCR method using the 5′-Texas Red-labeled 19-base-pair primer (pUC18 forward, 328-345; SEQ ID NO:6) and the 21-base-pair primer (pUC18 reverse, 1861-1881; SEQ ID NO:5), puc18 being used as a template.
# The reaction of compounds (3-1) and (4-1) prepared in the above-described Synthesis Examples with DNA was studied using the long-chain DNA (pUC-II′; SEQ ID NO:7). An alkylation reaction was performed at 23° C. for 8 hours. The sequence alkylated was analyzed by polyacrylic gel electrophoresis for sequence determination. […] This sequence specificity can be explained by a model in which each compound dimerizes in the DNA minor groove to recognize the base sequence.
# Analysis by polyacrylamide gel electrophoresis was performed by the following process: A standard reaction solution containing the 5′-Texas Red-end-labeled DNA fragment (10 nM), DMF (10% (v/v)), and an agent having a concentration described above in a sodium phosphate buffer (5 mM, total volume: 10 μL, pH=7.0) was charged into a microfuge tube (Eppendorf) and left standing at 23° C. for 8 hours. After completion of the reaction, the reaction was quenched by the addition of calf thymus DNA (1 mM, 1 μL). The resulting mixture was shaken at 90° C. for 5 minutes. […]
# [2] = Stability under acidic and alkaline conditions by HPLC; type: physicochemical
# Protocol: Analysis of stability under acidic and alkaline conditions by HPLC was performed by the following process: A reaction solution containing compound (3-1) or (4-1) (100 μM) in a total volume of 10 μL of an aqueous solution of 5% HCl (pH=1, DMF:H2O=1:9) or an aqueous solution of 5% NaHCO3 (pH=9, DMF:H2O=1:9) was charged into a microfuge tube (Eppendorf) and left standing at 37° C. After 30 minutes, 2 hours, and 24 hours, analysis of compound (4-1) (16.8 min) and compound (3-1) (15.1 min) was performed by HPLC (linear gradient of acetonitrile 0-100% in 50 mM ammonium formate, 20 min, flow rate: 1.0 mL/min, 254 nm).
# The Py-Im polyamide containing the indole linker was evaluated for stability by product analysis on HPLC using compounds (4-1) and (3-1). […] Compound (4-1) was converted into compound (3-1) (30 minutes: 50%, 2 hours: 78%) in the alkaline aqueous NaHCO3 solution (pH=9) (left standing at 37° C. for 24 hours). […] Compound (3-1) was readily converted into compound (4-1) (30 minutes: 96%) in the acidic aqueous HCl solution (pH=1) (37° C.).
# [3] = test system: long-chain DNA (λ-F10906; SEQ ID NO:8); assay: DNA alkylation of 5′-Texas Red-labeled long-chain DNA, analysed by polyacrylamide gel electrophoresis; type: biochemical; details: λ-F10906, nanomolar concentrations, FIG. 4
# Protocol: A 5′-Texas Red-labeled DNA fragment (537 bp) (λ-F10906; SEQ ID NO:8) was prepared by a PCR method using a 5′-Texas Red-labeled 23-base-pair primer, i.e., 5′-TexRed-[…]-3′ (λ-DNA forward, 10960-10982; SEQ ID NO:9), and a 20-base-pair primer, i.e., 5′-[…]-3′ (λ-DNA reverse, 37007-37026; SEQ ID NO:10), λ-DNA being used as a template.
# (§1) Analysis by polyacrylamide gel electrophoresis was performed by the following process: A standard reaction solution containing the 5′-Texas Red-end-labeled DNA fragment (10 nM), DMF (10% (v/v)), and an agent having a concentration described above in a sodium phosphate buffer (5 mM, total volume: 10 μL, pH=7.0) was charged into a microfuge tube (Eppendorf) and left standing at 23° C. for 8 hours. After completion of the reaction, the reaction was quenched by the addition of calf thymus DNA (1 mM, 1 μL). The resulting mixture was shaken at 90° C. for 5 minutes. The DNA obtained by centrifugation under reduced pressure was dissolved by the addition of 8 μl, of loading dye (fushin red solution in DMF), shaken at 94° C. for 20 minutes, and then immediately cooled to 0° C. A 2-μL aliquot was separated electrophoretically on a 6% denaturing polyacrylamide gel using a Hitachi 5500-S DNA sequencer. The following tests were conducted in a similar way.
# The reaction of compounds (3-2), (3-4), and (3-5) with DNA was studied using the long-chain DNA (λ-F10906; SEQ ID NO:8). The DNA-alkylating ability of each compound was evaluated.
# [4] = test system: human ER(+) breast cancer Br-10; assay: Antitumor activity against transplantable human breast cancer in nude mice; type: in vivo, BALB/cA-nu/nu mice; details: for T/C (%): treated group / control group ×100
# Protocol: Antitumor activity of compound (4-2) against transplantable human ER(+) breast cancer Br-10 in nude mice was studied. Human ER(+) breast cancer Br-10 was subcutaneously transplanted in dorsal portions of 8-week-old BALB/cA-nu/nu mice through a trocar. Injection of 0.1 mL of EP Hormone Depot was intramuscularly administered in Br-10-transplant mice simultaneously with the transplantation. When the tumor volume reached about 100 mm^3, the mice were divided into 5 mice/group, and then the administration started.
# Compound (4-2) was dissolved in ethanol, diluted with physiological saline, and subcutaneously injected in divided doses into 3 or 4 portions near the tumor once a day and 3 times every 3 days. The dose of compound (4-2) was 50 mg/kg (about 1 mg/mouse) in a volume of 0.05 mL/10 g. Physiological saline was subcutaneously injected in the control group. The length of the major axis (L) and the length of the minor axis (W) were measured every 3 days. The tumor volume was calculated with the following formula: Tumor volume (mm^3)=L(mm)×W^2(mm^2)/2 Comparison of the tumor volume between the compound (4-2) treated group and the control group was performed. […] Values shown in the table show relative estimation of each group when the tumor volume after 1 day in each group is defined as 1.0; and relative estimation calculated with (tumor volume of compound (4-2) treated group: T)/(tumor volume of control group: C)×100%.
# [5] = test system: long-chain DNA (pUC-II; SEQ ID NO:4, pUC-I′; SEQ ID NO:1); assay: DNA alkylation of 5′-Texas Red-labeled long-chain DNA, analysed by polyacrylamide gel electrophoresis; type: biochemical
# Protocol: A 5′-Texas Red-labeled DNA fragment (450 bp) (pUC-I′, SEQ ID NO:1) was prepared by a PCR method using a 5′-Texas Red-labeled 20-base-pair primer, i.e., 5′-TexRed-[…]-3′ (pUC18 forward, 780-799; SEQ ID NO:2), and a 20-base-pair primer, i.e., 5′-[…]-3′ (pUC18 reverse, 1459-1478; SEQ ID NO:3), puc18 being used as a template. The DNA fragment was in a double-stranded state including a complementary strand (the following fragments were in the same state).
# A 5′-Texas Red-labeled DNA fragment (450 bp) (pUC-II, SEQ ID NO:4) was prepared by a PCR method using a 5′-Texas Red-labeled 21-base-pair primer, i.e., 5′-TexRed-[…]-3′ (pUC18 reverse, 1861-1881; SEQ ID NO:5), and a 19-base-pair primer, i.e., 5-TGTAAAACGACGGCCAGTG-3′ (pUC18 forward, 328-345; SEQ ID NO:6), puc18 being used as a template.
# as §1
# The reaction of compounds (3-2) and (3-3) prepared in the above-described Synthesis Examples with DNA was studied using the long-chain DNA (pUC-II; SEQ ID NO:4, pUC-I′; SEQ ID NO:1). An alkylation reaction was performed for 8 hours. The sequence alkylated was analyzed by polyacrylic gel electrophoresis for sequence determination. […] However, the difference in sequence recognition ability was observed. […] From the stand point of the sequence recognition ability, the molecular design of compound (3-2) was excellent.
# [6] = 8 hours, pUC-II and pUC-I′, FIG. 2
structure (smiles),measurement,setting,value
"CC(=O)Nc1cn(C)c(C(=O)Nc2cn(C)c(C(=O)Nc3ccc4[nH]c(C(=O)N5CC6CC67C5=CC(=O)c5ccccc57)cc4c3)n2)n1 (centres unmarked) [compound (3-1), AcImIm-Indole-CBI]",sequence-specific DNA alkylation,[1],selectively alkylated adenine located at site 1 (5′-CGGCCA-3′) at nanomolar concentrations
same,conversion into compound (4-1),"[2]; acidic aqueous HCl solution pH=1, 37° C., 30 minutes",96%
"CC(=O)Nc1cn(C)c(C(=O)Nc2cc(C(=O)Nc3cc(C(=O)Nc4cc(C(=O)NCCCC(=O)Nc5cn(C)c(C(=O)Nc6cc(C(=O)Nc7ccc8[nH]c(C(=O)N9CC%10CC%10%11C9=CC(=O)c9ccccc9%11)cc8c7)n(C)c6)n5)n(C)c4)n(C)c3)n(C)c2)n1 (centres unmarked) [compound (3-5), AcImPyPyPy-γ-ImPy-Indole-CBI]","sequence-specific DNA alkylation, alkylated sites",[3],alkylation of an only mismatch sequence (site 1: 5′-TGCTCA-3′) was observed
"CC(=O)Nc1cn(C)c(C(=O)Nc2cn(C)c(C(=O)Nc3cc(C(=O)Nc4cc(C(=O)NCCCC(=O)Nc5cn(C)c(C(=O)Nc6cc(C(=O)Nc7ccc8[nH]c(C(=O)N9CC(CCl)c%10c9cc(O)c9ccccc%109)cc8c7)n(C)c6)n5)n(C)c4)n(C)c3)n2)n1 (centres unmarked) [compound (4-2), AcImImPyPy-γ-ImPy-Indole-seco-CBI]",suppression of tumor growth,"[4]; 50 mg/kg subcutaneous near the tumor, Br-10 in nude mice",suppression of tumor growth was observed after the first administration
same,toxicity (weight loss of mice and the like),"[4]; 50 mg/kg subcutaneous, nude mice",toxicity that causes the weight loss of mice and the like was not observed
same,relative tumor volume (after 1 day = 1.0),"[4]; after 1 day, 50 mg/kg subcutaneous near the tumor",1.0
same,T/C (%),[4]; after 1 day,100%
same,relative tumor volume (after 1 day = 1.0),"[4]; after 4 days, 50 mg/kg subcutaneous near the tumor",1.1
same,T/C (%),[4]; after 4 days,78.6%
same,relative tumor volume (after 1 day = 1.0),"[4]; after 7 days, 50 mg/kg subcutaneous near the tumor",1.4
same,T/C (%),[4]; after 7 days,82.4%
same,relative tumor volume (after 1 day = 1.0),"[4]; after 10 days, 50 mg/kg subcutaneous near the tumor",1.4
same,T/C (%),[4]; after 10 days,66.7%
same,relative tumor volume (after 1 day = 1.0),"[4]; after 13 days, 50 mg/kg subcutaneous near the tumor",1.5
same,T/C (%),[4]; after 13 days,55.6%
same,relative tumor volume (after 1 day = 1.0),"[4]; after 16 days, 50 mg/kg subcutaneous near the tumor",2.0
same,T/C (%),[4]; after 16 days,64.5%
"CC(=O)Nc1cn(C)c(C(=O)Nc2cn(C)c(C(=O)Nc3cc(C(=O)NCCCC(=O)Nc4cn(C)c(C(=O)Nc5ccc6[nH]c(C(=O)N7CC8CC89C7=CC(=O)c7ccccc79)cc6c5)n4)n(C)c3)n2)n1 (centres unmarked) [compound (3-3), AcImImPy-γ-Im-Indole-CBI]",alkylated sites (sequence recognition ability),[5]; [6],"alkylation of site 4 (5′-AGCCA-3′), which was a match sequence, was observed; also recorded: single-base-pair mismatch sequences in site 1 (5′-AGCTA-3′), site 2 (5′-AGTCA-3′), site 5 (5′-TACCA-3′), and the like were also observed"
same,efficiency of DNA alkylation,[5]; [6],efficient DNA alkylation comparable with that of a known Py-Im polyamide having a vinyl linker was observed at nanomolar concentrations
same,alkylation of guanine at match site 5′-TGCCG-3′,[5]; pUC-I′ (SEQ ID NO:1),no alkylation of guanine was observed
"CC(=O)Nc1cn(C)c(C(=O)Nc2cn(C)c(C(=O)Nc3ccc4[nH]c(C(=O)N5CC(CCl)c6c5cc(O)c5ccccc65)cc4c3)n2)n1 (centres unmarked) [compound (4-1), AcImIm-Indole-seco-CBI]",sequence-specific DNA alkylation,[1],selectively alkylated adenine located at site 1 (5′-CGGCCA-3′) at nanomolar concentrations
same,conversion into compound (3-1),"[2]; alkaline aqueous NaHCO3 solution pH=9, 37° C., 30 minutes",50%
same,conversion into compound (3-1),"[2]; alkaline aqueous NaHCO3 solution pH=9, 37° C., 2 hours",78%
same,formation of other hydrolysates,"[2]; alkaline aqueous NaHCO3 solution pH=9, 37° C., 24 hours",No other hydrolysates were formed
same,hydrolysis in acidic aqueous HCl solution,"[2]; pH=1, 37° C., 24 hours",not hydrolyzed at all
"CC(=O)Nc1cn(C)c(C(=O)Nc2cn(C)c(C(=O)Nc3cc(C(=O)Nc4cc(C(=O)NCCCC(=O)Nc5cc(C(=O)Nc6cc(C(=O)Nc7ccc8[nH]c(C(=O)N9CC%10CC%10%11C9=CC(=O)c9ccccc9%11)cc8c7)n(C)c6)n(C)c5)n(C)c4)n(C)c3)n2)n1 (centres unmarked) [compound (3-4), AcImImPyPy-γ-PyPy-Indole-CBI]","sequence-specific DNA alkylation, alkylated sites",[3],"Sequence-specific DNA alkylation (site 6: 5′-AATCCA-3′, site 7: 5′-TAACCA-3′)"

# — patent US7745473B2, “Indole derivative for alkylating specific base sequence of DNA and alkylating agent and drug containing the derivative” (Kyoto University, priority 2004, dated 2010)
